Reference: patent US20100069366A1, “ANTIBACTERIAL QUINOLINE DERIVATIVES” (JANSSEN-CILAG, priority 2006, published 2010)
Converted amounts (≈) assume the structure as drawn.

Experiments:
Format in all cases: cell-based
M. Smegmatis ATCC607 = experiment: In-vitro anti-bacterial activity against strain M. smegmatis ATCC607; conditions: for M. smegmatis IC90: 90% inhibitory concentration for bacterial growth, 48 hours, Alamar Blue fluorescence; for IC90: Mycolicibacterium smegmatis, ATCC607, 48 h, read-out: M. smegmatis IC90 (μg/ml), 90% inhibitory concentration for bacterial growth, Alamar Blue fluorescence
Description: Flat-bottom, sterile 96-well plastic microtiter plates were filled with 180 μl of sterile deionized water, supplemented with 0.25% BSA. Subsequently, stock solutions (7.8× final test concentration) of compounds were added in 45 μl volumes to a series of duplicate wells in column 2 so as to allow evaluation of their effects on bacterial growth. Serial five-fold dilutions (45 μl in 180 μl) were made directly in the microtiter plates from column 2 to 11 using a customised robot system (Zymark Corp., Hopkinton, Mass.). Pipette tips were changed after every 3 dilutions to minimize pipetting errors with high hydrophobic compounds. Untreated control samples with (column 1) and without (column 12) inoculum were included in each microtiter plate. Approximately 250 CFU per well of bacteria inoculum, in a volume of 100 μl in 2.8× Mueller-Hinton broth medium, was added to the rows A to H, except column 12. The same volume of broth medium without inoculum was added to column 12 in row A to H. The cultures were incubated at 37° C. for 48 hours in a humidified 5% CO2 atmosphere (incubator with open air valve and continuous ventilation). At the end of incubation, two days after inoculation, the bacterial growth was quantitated fluorometrically. Therefore Alamar Blue (10×) was added to all wells in a volume of 20 μl and plates were incubated for another 2 hours at […]
The fluorescence was read in a computer-controlled fluorometer (Cytofluor, Biosearch) at an excitation wavelength of 530 nm and an emission wavelength of 590 nm (gain 30).

[1] = system: Streptococcus pneumoniae (ATCC6305); experiment: Microtitre plate assay, IC90 determination, SPN 6305; conditions: 90% inhibitory concentration for bacterial growth, resazurin; for IC90 (μg/ml) SPN 6305: Streptococcus pneumoniae ATCC6305; for IC90: Streptococcus pneumoniae, ATCC6305, read-out: IC90 (μg/ml) SPN 6305, Streptococcus pneumoniae ATCC6305
Description: (§1) The bacteria used in this study were grown overnight in flasks containing 100 ml Mueller-Hinton Broth (Becton Dickinson—cat. no. 275730) in sterile de-ionized water, with shaking, at 37° C. Stocks (0.5 ml/tube) were stored at −70° C. until use. Bacteria titrations were performed in microtiter plates to detect the TCID50, in which the TCID50 represents the dilution that gives rise to bacterial growth in 50% of inoculated cultures.
(§2) In general, an inoculum level of approximately 100 TCID50 was used for susceptibility testing.
(§3) Flat-bottom, sterile 96-well plastic microtiter plates were filled with 180 μl of sterile deionized water, supplemented with 0.25% BSA. Subsequently, stock solutions (7.8× final test concentration) of compounds were added in 45 μl volumes in column 2 Serial five-fold dilutions (45 μl in […]) were made directly in the microtiter plates from column 2 to reach column 11. Untreated control samples with (column 1) and without (column 12) inoculum were included in each microtiter plate. Depending on the bacteria type, approximately 10 to 60 CFU per well of bacteria inoculum (100 TCID50), in a volume of 100 μl in 2.8× Mueller-Hinton broth medium, was added to the rows A to H, except column 12. The same volume of broth medium without inoculum was added to column 12 in row A to H. The cultures were incubated at 37° C. for 24 hours under a normal atmosphere (incubator with open air valve and continuous ventilation). At the end of incubation, one day after inoculation, the bacterial growth was quantitated fluorometrically. Therefore resazurin (0.6 mg/ml) was added in a volume of 20 μl to all wells 3 hours after inoculation, and the plates were re-incubated overnight. A change in colour from blue to pink indicated the growth of bacteria. The fluorescence was read in a computer-controlled fluorometer (Cytofluor Biosearch) at an excitation wavelength of 530 nm and an emission wavelength of 590 nm. The % growth inhibition achieved by the compounds was calculated according to standard methods.

[2] = system: Staphylococcus aureus (ATCC29213); experiment: Microtitre plate assay, IC90 determination, STA 29213; conditions: for IC90 (μg/ml) STA 29213: Staphylococcus aureus ATCC29213, 90% inhibitory concentration for bacterial growth, resazurin; for IC90: Staphylococcus aureus, ATCC29213, read-out: IC90 (μg/ml) STA 29213
Description: as §1, §2, §3

SMILES | M. smegmatis IC90 (M. Smegmatis ATCC607) [µg/mL] | IC90 (μg/ml) SPN 6305 [1] [µg/mL] | IC90 (μg/ml) STA 29213 [2] [µg/mL] | IC90 (M. Smegmatis ATCC607) [µg/mL] | IC90 [2] [µg/mL] | IC90 [1] [µg/mL]
COc1nc2ccc(-c3cc4ccccc4s3)cc2cc1C(C(=CCN(C)C)c1cccc2ccccc12)c1ccccc1 (mixture of isomers) [Compound 34] | 2.35 | 10.51 | – | – | – | –
COc1nc2ccc(Br)cc2cc1C(=C(CCN1CCOCC1)c1ccccc1)c1ccccc1 (mixture of isomers) [Compound 43] | 4.21 | 8.39 | 52.95 | – | – | –
COc1nc2ccc(Br)cc2cc1C(=C(CCN1CCN(C)CC1)c1ccccc1)c1ccccc1 (mixture of isomers) [Compound 44] | 4.31 | 10.82 | 10.82 | – | – | –
COc1nc2ccc(Br)cc2cc1C(=C(CCN1CCN(C)CC1)c1ccccc1)c1ccccc1 (mixture of isomers) [Compound 45] | 9.65 | 10.82 | 43.09 | – | – | –
COc1nc2ccc(F)cc2cc1C(C(=CCN(C)C)c1ccccc1)c1ccccc1 (racemic) [Compound 24] | 5.37 | 1.51 (≈ 3.54 µM) | 33.88 (≈ 79.4 µM) | – | – | –
CCN(CC)CC=C(c1cccc2ccccc12)C(c1ccccc1)c1cc2cc(Br)ccc2nc1OC (racemic) [Compound 28] | 1.79 | 2.01 (≈ 3.55 µM) | 8.96 (≈ 15.8 µM) | – | – | –
COc1ccc2nc(OC)c(C(C(=CCN(C)C)c3ccccc3)c3ccccc3)cc2c1 (racemic) [Compound 31] | 6.95 | 7.8 (≈ 17.8 µM) | 39.09 (≈ 89.1 µM) | – | – | –
COc1nc2ccc(-c3cc4ccccc4s3)cc2cc1C(C(=CCN(C)C)c1cccc(F)c1)c1ccccc1 (racemic) [Compound 33] | 7.03 | 7.89 (≈ 14.1 µM) | 8.86 (≈ 15.9 µM) | – | – | –
COc1nc2ccc(Br)cc2cc1C(C(=CCn1cncn1)c1ccccc1)c1ccccc1 (racemic) [Compound 47] | 20.36 | – | – | – | – | –
COc1nc2ccc(Br)cc2cc1C(C(=CCN1CCN(C)CC1)c1ccccc1)c1ccccc1 (racemic) [Compound 48] | 1.72 | 2.72 (≈ 5.01 µM) | 10.82 (≈ 19.9 µM) | – | – | –
COc1nc2ccc(Br)cc2cc1C(=C(CCn1ccnc1)c1ccccc1)c1ccccc1 (single isomer, unassigned) [Compound 5] | 5.1 | 36.14 (≈ 70.8 µM) | 36.14 (≈ 70.8 µM) | – | – | –
COc1nc2ccc(Br)cc2cc1C(=C(CCn1ccnc1)c1ccccc1)c1ccccc1 (single isomer, unassigned) [Compound 6] | 10.18 | 10.18 (≈ 19.9 µM) | 10.18 (≈ 19.9 µM) | – | – | –
COc1nc2ccc(F)cc2cc1C(=C(CCN(C)C)c1ccccc1)c1ccccc1 (single isomer, unassigned) [Compound 39] | 16.98 | 8.51 (≈ 20 µM) | 33.88 (≈ 79.4 µM) | – | – | –
COc1nc2ccc(Br)cc2cc1C(=C(CCn1cncn1)c1ccccc1)c1ccccc1 (single isomer, unassigned) [Compound 42] | 22.84 | – | – | – | – | –
COc1nc2ccc(Br)cc2cc1/C(=C(/CCN(C)C)c1ccccc1)c1ccc(Cl)cc1 [Compound 1] | – | – | – | 1.65 (≈ 3.16 µM) | 8.27 (≈ 15.8 µM) | 1.65 (≈ 3.16 µM)
CSc1nc2ccc(Br)cc2cc1/C(=C(/CCN(C)C)c1ccccc1)c1ccccc1 [Compound 2] | – | – | – | 1.59 (≈ 3.16 µM) | 7.98 (≈ 15.8 µM) | 1.59 (≈ 3.16 µM)
CSc1nc2ccc(Br)cc2cc1/C(=C(\CCN(C)C)c1ccccc1)c1ccccc1 [Compound 3] | – | – | – | 2 (≈ 3.97 µM) | 7.98 (≈ 15.8 µM) | 1.59 (≈ 3.16 µM)
